Values joined by “and” are separate entries in the source; they are usually repeats but may differ in a detail not shown here. Equal values may be shown once. Read-outs that look alike come from different tables or passages of the source.
Assays:
[1] = test system: Enterococcus faecalis EFS.201 (ATCC 49452); format: cell-based
How it was run: (§1)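 Broth microdilution per CLSI M7-A7 in Mueller Hinton broth supplemented with 50 mg/L calcium, 5×10^5 bacteria per well, 2-fold compound dilutions, DMSO ≤1%. Plates incubated 18-20 hours at 37° C with aeration (200 rpm); MIC (μg/mL) is the lowest concentration giving no visible turbidity.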

[2] = test system: Enterococcus faecalis EFS.312, Daptomycin resistant mutant (EFA); format: cell-based; settings: MHBc with 50 mg/L calcium, 18-20 hours at 37° C.
How it was run: as §1

[3] = test system: Enterococcus faecium EFM.14 (ATCC 6569); format: cell-based
How it was run: as §1

[4] = test system: Enterococcus faecium EFM.384, Daptomycin resistant mutant (14-A); format: cell-based; settings: MHBc with 50 mg/L calcium, 18-20 hours at 37° C.
How it was run: as §1

[5] = test system: Staphylococcus aureus SAU.278, Daptomycin resistant mutant (D10); format: cell-based; settings: MHBc with 50 mg/L calcium, 18-20 hours at 37° C.
How it was run: as §1

[6] = test system: Staphylococcus aureus SAU.399 (ATCC 43300), Methicillin and Oxacillin Resistant; format: cell-based
How it was run: as §1

gram positive bacteria = assay: Antimicrobial activity against a panel of organisms, summary statements; format: cell-based; settings: statement in words
Description: (§2) Compounds according to Formula I were tested for antimicrobial activity against a panel of organisms. Aerobic organisms, Staphylococcus aureus, Enterococcus faecalis and E. faecium, were tested by broth microdilution according to Clinical and Laboratory Standards Institute (CLSI) document M7-A7 (Clinical and Laboratory Standards Institute. Methods for Dilution Antimicrobial Susceptibility Tests for Bacteria that Grow Aerobically; Approved Standard—Seventh Edition. CLSI document M7-A7 [ISBN 1-56238-587-9]. Clinical and Laboratory Standards Institute, 940 West Valley Road, Suite 1400, Wayne, Pa. 19087-1898 USA, 2006) with modifications as described below. Mueller Hinton Broth (MHBc) was supplemented with 50 mg/L calcium (equivalent to human physiological levels of calcium) and assay plates were incubated 18-20 hours at 37° C. with aeration (200 rpm).
(§3) In all cases the final concentration of dimethyl sulfoxide incubated with cells is less than or equal to 1%. For minimum inhibitory concentration (MIC) calculations, 2-fold dilutions of compounds were added to wells of a microtiter plate containing 5×10^5 bacteria in a final volume of 100 μL of media. Following incubation, (18-20 hours at 37° C. with aeration at 200 rpm) growth was confirmed visually by placing plates over a viewing apparatus (stand with a mirror underneath) and then the optical density (OD600) was measured using a SpectraMax 340PC^384 plate reader. Growth was defined as turbidity that could be detected with the naked eye or achieving minimum OD600of 0.1. MIC values (in μg/mL) were defined as the lowest concentration producing no visible turbidity.

[7] = test system: daptomycin resistant Staph. aureus (DRSA), daptomycin resistant E. faecium (DREfm) and daptomycin resistance E. faecalis (DREfs); assay: Activity against daptomycin resistant bacteria, summary statement; format: cell-based; settings: statement in words
Description: as §2, §3

[8] = test system: C. difficile spores (ATCC #43596); assay: Hamster C. difficile infection (CDAD) protection model; format: in vivo, Syrian golden hamsters; settings: oral 0.5 mg/kg once daily for 5 days (MET 70 mg/kg three times daily for 5 days)
Description: Syrian golden hamsters were pretreated with 10 mg/kg clindamycin subcutaneously 24 hours before bacterial challenge. An inoculum of 20 C. difficile spores (ATCC #43596) in sterile saline was administered orally. Treatment was initiated 4 hours post-inoculation with dH2O, metronidazole (MET), vancomycin (VAN), or a compound of the present invention. Oral dosing regimens for VAN and compounds of Formula I were 0.5 mg/kg once daily for 5 days. MET was administered at 70 mg/kg three times daily for 5 days. CDAD was confirmed as the cause of death by observations at necropsy, including wet tail and/or macroscopic cecal alterations. The % protection provided by each therapy tested was calculated at 1 and 21 days post-dosing.

[9] = test system: Staphylococcus aureus SAU.42 (ATCC 29213); format: cell-based; settings: MHBc with 50 mg/L calcium, 18-20 hours at 37° C.
How it was run: as §1

[10] = MHBc with 50 mg/L calcium, 18-20 hours at 37° C.

Compound	Efs201 MIC ([1]; ATCC 49452) [µg/mL]	Efs312 MIC [2]	Efm14 MIC ([3]; ATCC 6569) [µg/mL]	Efm384 MIC [4]	Sa278 MIC [5]	Sa399 MIC ([6]; ATCC 43300) [µg/mL]	as active or more active than daptomycin (gram positive bacteria)	more active against bacteria than daptomycin (gram positive bacteria)	useful against daptomycin resistant strains of bacteria [7]	C. diff MIC90 (Clostridium difficile) [µg/mL]	Mean % Protection 1 Day Post Dosing [8] [%]	Mean % Protection 21 Days Post Dosing [8] [%]	Efs201 MIC [1, 10] [µg/mL]	Efm14 MIC [3, 10] [µg/mL]	Sa399 MIC [6, 10] [µg/mL]	Sa42 MIC [9] [µg/mL]
CCCCCCc1ccc(/C(C)=C/C(=O)N[C@@H](Cc2c[nH]c3ccccc23)C(=O)N[C@H](CC(N)=O)C(=O)N[C@@H](CC(=O)O)C(=O)N[C@@H]2C(=O)NCC(=O)N[C@@H](CCCN)C(=O)N[C@@H](CC(=O)O)C(=O)N[C@H](C)C(=O)N[C@@H](CC(=O)O)C(=O)NCC(=O)N[C@H](CO)C(=O)N[C@@H]([C@H](C)CC(=O)O)C(=O)N[C@@H](CC(=O)c3ccccc3N)C(=O)O[C@@H]2C)cc1 [Compound 50, N-{1-[(E)-3-(4-hexylphenyl)but-2-enoyl]}-L-tryptophyl-D-asparaginyl-L-α-aspartyl-L-threonylglycyl-L-ornithyl-L-α-aspartyl-D-alanyl-L-α-aspartylglycyl-D-seryl-(3R)-3-methyl-L-α-glutamyl-(αS)-α,2-diamino-γ-oxobenzenebutanoic acid (13→4)-lactone]	0.25	4 µg/mL	1	4 µg/mL	1 µg/mL	0.5	as active or more active than daptomycin	more effective than daptomycin	useful against daptomycin resistant strains of bacteria	0.5	–	–	–	–	–	–
CCCCCCC1CCC(c2ccc(C(=O)N[C@@H](Cc3c[nH]c4ccccc34)C(=O)N[C@H](CC(N)=O)C(=O)N[C@@H](CC(=O)O)C(=O)N[C@@H]3C(=O)NCC(=O)N[C@@H](CCCN)C(=O)N[C@@H](CC(=O)O)C(=O)N[C@H](C)C(=O)N[C@@H](CC(=O)O)C(=O)NCC(=O)N[C@H](CO)C(=O)N[C@@H]([C@H](C)CC(=O)O)C(=O)N[C@@H](CC(=O)c4ccccc4N)C(=O)O[C@@H]3C)cc2)CC1 (stereo partly drawn) [Compound 54, N-[4-(−4-hexylcyclohexyl)benzoyl]-L-tryptophyl-D-asparaginyl-L-α-aspartyl-L-threonylglycyl-L-ornithyl-L-α-aspartyl-D-alanyl-L-α-aspartylglycyl-D-seryl-(3R)-3-methyl-L-α-glutamyl-(αS)-α,2-diamino-γ-oxobenzenebutanoic acid (13→4)-lactone]	–	–	–	–	–	–	as active or more active than daptomycin	more effective than daptomycin	useful against daptomycin resistant strains of bacteria	–	0	0	–	–	–	–
CCCCCCCCc1ccc(C(=O)N[C@@H](Cc2c[nH]c3ccccc23)C(=O)N[C@H](CC(N)=O)C(=O)N[C@@H](CC(=O)O)C(=O)N[C@@H]2C(=O)NCC(=O)N[C@@H](CCCN)C(=O)N[C@@H](CC(=O)O)C(=O)N[C@H](C)C(=O)N[C@@H](CC(=O)O)C(=O)NCC(=O)N[C@H](CO)C(=O)N[C@@H]([C@H](C)CC(=O)O)C(=O)N[C@@H](CC(=O)c3ccccc3N)C(=O)O[C@@H]2C)cc1 [Compound 34, N-(4-octylbenzoyl)-L-tryptophyl-D-asparaginyl-L-α-aspartyl-L-threonylglycyl-L-ornithyl-L-α-aspartyl-D-alanyl-L-α-aspartylglycyl-D-seryl-(3R)-3-methyl-L-α-glutamyl-(αS)-α,2-diamino-γ-oxobenzenebutanoic acid (13→4)-lactone]	–	4 µg/mL and 8 µg/mL	–	2 µg/mL and 4 µg/mL	–	–	as active or more active than daptomycin	more effective than daptomycin	useful against daptomycin resistant strains of bacteria	1	85	38	–	–	–	–
CCCCCC12CCC(C(=O)N[C@@H](Cc3c[nH]c4ccccc34)C(=O)N[C@H](CC(N)=O)C(=O)N[C@@H](CC(=O)O)C(=O)N[C@@H]3C(=O)NCC(=O)N[C@@H](CCCN)C(=O)N[C@@H](CC(=O)O)C(=O)N[C@H](C)C(=O)N[C@@H](CC(=O)O)C(=O)NCC(=O)N[C@H](CO)C(=O)N[C@@H]([C@H](C)CC(=O)O)C(=O)N[C@@H](CC(=O)c4ccccc4N)C(=O)O[C@@H]3C)(CC1)CC2 [Compound 22, N-(4-pentylbicyclo[2.2.2]octane-1-carbonyl)-L-tryptophyl-D-asparaginyl-L-α-aspartyl-L-threonylglycyl-L-ornithyl-L-α-aspartyl-D-alanyl-L-α-aspartylglycyl-D-seryl-(3R)-3-methyl-L-α-glutamyl-(αS)-α,2-diamino-γ-oxobenzenebutanoic acid (13→4)-lactone]	–	–	–	–	–	–	as active or more active than daptomycin	–	useful against daptomycin resistant strains of bacteria	1	85	38	–	–	–	–
CCCCCCCCCCOc1ccc(C(=O)N[C@@H](Cc2c[nH]c3ccccc23)C(=O)N[C@H](CC(N)=O)C(=O)N[C@@H](CC(=O)O)C(=O)N[C@@H]2C(=O)NCC(=O)N[C@@H](CCCN)C(=O)N[C@@H](CC(=O)O)C(=O)N[C@H](C)C(=O)N[C@@H](CC(=O)O)C(=O)NCC(=O)N[C@H](CO)C(=O)N[C@@H]([C@H](C)CC(=O)O)C(=O)N[C@@H](CC(=O)c3ccccc3N)C(=O)O[C@@H]2C)cc1 [Compound 38]	–	0.5 µg/mL	–	1 µg/mL	0.50 µg/mL	–	as active or more active than daptomycin	more effective than daptomycin	useful against daptomycin resistant strains of bacteria	1	–	–	0.5	0.5	0.5	0.25
CCCCc1ccc(/C(C)=C/C(=O)N[C@@H](Cc2c[nH]c3ccccc23)C(=O)N[C@H](CC(N)=O)C(=O)N[C@@H](CC(=O)O)C(=O)N[C@@H]2C(=O)NCC(=O)N[C@@H](CCCN)C(=O)N[C@@H](CC(=O)O)C(=O)N[C@H](C)C(=O)N[C@@H](CC(=O)O)C(=O)NCC(=O)N[C@H](CO)C(=O)N[C@@H]([C@H](C)CC(=O)O)C(=O)N[C@@H](CC(=O)c3ccccc3N)C(=O)O[C@@H]2C)cc1 [Compound 48, N-{1-[(E)-3-(4-butylphenyl)but-2-enoyl]}-L-tryptophyl-D-asparaginyl-L-α-aspartyl-L-threonylglycyl-L-ornithyl-L-α-aspartyl-D-alanyl-L-α-aspartylglycyl-D-seryl-(3R)-3-methyl-L-α-glutamyl-(αS)-α,2-diamino-γ-oxobenzenebutanoic acid (13→4)-lactone]	1	>32 µg/mL and 32 µg/mL	2	32 µg/mL	2 µg/mL and 4 µg/mL	–	as active or more active than daptomycin	–	useful against daptomycin resistant strains of bacteria	2	–	–	–	–	–	–

— patent US20150337013A1, “NOVEL ANTIBACTERIAL AGENTS FOR THE TREATMENT OF GRAM POSITIVE INFECTIONS” (priority 2008, published 2015)
